Data taken from patent US10004225B2, “Wearable insect repelling patch” (S. C. Johnson & Son, Inc., priority 2005, dated 2018).
Like-named read-outs stand apart in the source and are kept apart here.

Experiments:
mosquitoes = assay: Three-chamber test apparatus, mosquito personal area repellency of hung patches with human test subject as attractant; assay type: in vivo; conditions: for personal area control (result in words): no adhesive layer
Protocol: Various patch sizes and insect repellents were tested, initially using the test apparatus shown schematically generally at 20 in FIG. 3. The test apparatus 20 has a sample chamber 22, connected to a mosquito chamber 24, which is connected via an opening 34 to a remote chamber 26. Each chamber is generally cubical, with a volume of about 0.43 m^3.
The sample chamber 22 has an open end 28 on the side remote from the mosquito chamber 24. A screen 30 divides the sample chamber 22 from the mosquito chamber 24. The opening 34 between the mosquito chamber 24 and the remote chamber 26 is slightly constricted by side walls 32. However, the opening 34 is still sufficiently large that mosquitoes can freely move between the mosquito and remote chambers 24 and 26.
Four, screened, low-flow exhaust ports 36 are located in the side walls 32, the exhaust ports facing the open end 28. Air is drawn through the exhaust ports 36 and exhausted from the mosquito chamber 24 at a rate sufficient to draw air in through the open end 28 but insufficient to affect the flying of mosquitoes placed in the mosquito chamber 24 or to disturb the air in the remote chamber 26.
For each test, a human test subject 38 is placed at the open end 28 of the sample chamber 22, the test subject's breath providing the warmth, CO2, and moisture known to be human attractants for mosquitoes. The exhaust ports 36 pull air, along with those attractants, though the open end 28 and on through the sample chamber 22, the screen 30, and the mosquito chamber 24. The attractants thus leave the apparatus 20 without entering the remote chamber 26.
Mosquitoes are placed in the mosquito chamber 24 and are quickly attracted to the screen 30 by the human attractants. The open end 28 is large enough to expose primarily the upper torso and head of the test subject. Two patches 10 are hung one foot into the sample chamber 22 and approximately 20 cm down from the chamber's top (except as was done otherwise in particular experiments, as is noted, below).
Percent repellency was calculated as the percent of mosquitoes that had been initially introduced into the mosquito chamber 24 (most of which were attracted to the screen 30 before the patches 10 were put in place), that then were repelled from the screen when the patches were introduced. The “repellency” indicated in the table, below, for time zero reflects the mosquitoes that were not yet attracted to the screen 30 by the time the test patches 10 were introduced. […] The patches 10 used were 103 cm^2 in size, with no adhesive layer 18.
The patch material was a non-woven cloth material comprised of rayon, polyester, and polypropylene (as described in published U.S. Patent Application US20040082248), dosed with 60 mg of the active ingredient. The controls used no patches.
The same test apparatus 20 was used in the same way as described in Example 1, with the following changes. When a test included four patches 10, two were hung as in Example 1, and two were hung about 13 cm from the bottom of the chamber to simulate patches worn on the shoulders and at the waist of a user. In one test, as indicated in the table, below, the patches 10 were attached to the test subject's chest. Each individual patch was treated with the amount of insect repellent indicated. Time is shown in minutes.

[1] = cited from earlier work
[2] = Example 1, 2 patches 103 cm^2, 60 mg each
[3] = Example 1, 2 patches 103 cm^2, 60 mg each, no adhesive, 5 min
[4] = Example 1, 2 patches 103 cm^2, 60 mg each, no adhesive, 10 min
[5] = Example 1, 2 patches 103 cm^2, 60 mg each, no adhesive, 15 min
[6] = Example 1, 2 patches 103 cm^2, 60 mg each, no adhesive, 20 min
[7] = Example 1, 2 patches 103 cm^2, 60 mg each, no adhesive, time 0 min (mosquitoes not yet attracted to screen)

C#C[C@@H](OC(=O)[C@@H]1[C@@H](C=C(C)C)C1(C)C)C(C)=CCC (racemic) [emphenthrin, (RS)-1-ethynyl-2-methyl-2-pentenyl-(1RS,3RS)-2,2-dimethyl-3-(2-methylpropenyl)-cyclopropanecarboxylate]
% Repellency (mosquitoes; Example 2, 2 patches 103 cm^2, 60 mg each, 0 min): 17 | % Repellency (mosquitoes; Example 2, 2 patches 103 cm^2, 60 mg each, 5 min): 33 | % Repellency (mosquitoes; Example 2, 2 patches 103 cm^2, 60 mg each, 10 min): 29 | % Repellency (mosquitoes; Example 2, 2 patches 103 cm^2, 60 mg each, 15 min): 29 | practical mosquito personal area repellency (result in words) (mosquitoes; Example 2, 2 patches 103 cm^2, 60 mg each, within 20 minutes): proved not to be an insect repellent capable of providing practical mosquito personal area repellency within 20 minutes

CC=C[C@@H]1[C@@H](C(=O)OCc2c(F)c(F)c(C)c(F)c2F)C1(C)C (racemic) [profluthrin, 2,3,5,6-tetrafluoro-4-methylbenzyl (EZ)-(1RS,3RS)-2,2-dimethyl-3-(prop-1-enyl)-cyclopropanecarboxylate]
personal area repellency (result in words) (mosquitoes; [2]): successful personal area repellency | % Repellency (mosquitoes; [3]): 55% | % Repellency (mosquitoes; [4]): 67% | % Repellency (mosquitoes; [5]): 91% | % Repellency (mosquitoes; [6]): 93% | % Repellency (mosquitoes; [7]): 6% | Vapor pressure ([1]; @ 25° C.): 7.73 × 10^−5 mmHg @

COP(=O)(OC)OC=C(Cl)Cl [DDVP, 2,2-dichlorovinyl dimethyl phosphate]
% Repellency (mosquitoes; Example 2, 4 patches 103 cm^2, 60 mg each, 0 min): 5 | % Repellency (mosquitoes; Example 2, 4 patches 103 cm^2, 60 mg each, 5 min): 11 | % Repellency (mosquitoes; Example 2, 4 patches 103 cm^2, 60 mg each, 10 min): 47 | % Repellency (mosquitoes; Example 2, 4 patches 103 cm^2, 60 mg each, 15 min): 95 | % Repellency (mosquitoes; Example 2, 4 patches 103 cm^2, 60 mg each, 20 min): 95 | personal area control (result in words) (mosquitoes; Example 2, 4 patches, each 103 cm^2 in gross area): successful personal area control | Vapor pressure ([1]; @ 20° C.): 1.2 × 10^−5 mmHg @

CC1(C)[C@H](C=C(Cl)Cl)[C@H]1C(=O)OCc1c(F)c(F)cc(F)c1F [transfluthrin, (1R-trans)-(2,3,5,6-tetrafluorophenyl)-methyl-3-(2,2-dichloroethenyl)-2,2-dimethylcyclopropanecarboxylate]
personal area repellency (result in words) (mosquitoes; [2]): successful personal area repellency | % Repellency (mosquitoes; [3]): 54% | % Repellency (mosquitoes; [4]): 75% | % Repellency (mosquitoes; [5]): 90% | % Repellency (mosquitoes; [6]): 92% | % Repellency (mosquitoes; [7]): 13% | % Repellency (mosquitoes; Example 2, 2 patches 25.8 cm^2, 30 mg each, 0 min): 13 | % Repellency (mosquitoes; Example 2, 2 patches 25.8 cm^2, 30 mg each, 5 min): 41 | % Repellency (mosquitoes; Example 2, 2 patches 25.8 cm^2, 30 mg each, 10 min): 68 | % Repellency (mosquitoes; Example 2, 2 patches 25.8 cm^2, 30 mg each, 15 min): 74 | % Repellency (mosquitoes; Example 2, 2 patches 25.8 cm^2, 30 mg each, 20 min): 79 | % Repellency (mosquitoes; Example 2, 2 patches 103.22 cm^2 taped to test subject's chest, 60 mg each, 0 min): 19 | % Repellency (mosquitoes; Example 2, 2 patches 103.22 cm^2 taped to test subject's chest, 60 mg each, 5 min): 33 | % Repellency (mosquitoes; Example 2, 2 patches 103.22 cm^2 taped to test subject's chest, 60 mg each, 10 min): 44 | % Repellency (mosquitoes; Example 2, 2 patches 103.22 cm^2 taped to test subject's chest, 60 mg each, 15 min): 52 | % Repellency (mosquitoes; Example 2, 2 patches 103.22 cm^2 taped to test subject's chest, 60 mg each, 20 min): 81 | % Repellency (mosquitoes; Example 2, 4 patches 6.45 cm^2, 120 mg each, 0 min): 11 | % Repellency (mosquitoes; Example 2, 4 patches 6.45 cm^2, 120 mg each, 5 min): 21 | % Repellency (mosquitoes; Example 2, 4 patches 6.45 cm^2, 120 mg each, 10 min): 32 | % Repellency (mosquitoes; Example 2, 4 patches 6.45 cm^2, 120 mg each, 15 min): 42 | % Repellency (mosquitoes; Example 2, 4 patches 6.45 cm^2, 120 mg each, 20 min): 47 | % Repellency (mosquitoes; Example 2, 4 patches* 6.45 cm^2, 60 mg each, 4th patch added 10 minutes into test, 0 min): 5 | % Repellency (mosquitoes; Example 2, 4 patches* 6.45 cm^2, 60 mg each, 4th patch added 10 minutes into test, 5 min): 26 | % Repellency (mosquitoes; Example 2, 4 patches* 6.45 cm^2, 60 mg each, 4th patch added 10 minutes into test, 10 min): 47 | % Repellency (mosquitoes; Example 2, 4 patches* 6.45 cm^2, 60 mg each, 4th patch added 10 minutes into test, 15 min): 47 | % Repellency (mosquitoes; Example 2, 4 patches* 6.45 cm^2, 60 mg each, 4th patch added 10 minutes into test, 20 min): 47 | personal area control (result in words) (mosquitoes; Example 2, total area of patches at least 51.6 cm^2 (2 patches, each 25.8 cm^2)): successful personal area control | Vapor pressure ([1]; @ 20° C.): 3.0 × 10^−6 mmHg @
